Measured values taken from US20240099967A1, “INHALABLE COMPOSITION OF CLOFAZIMINE AND METHODS OF USE THEREOF” (priority 2017, published 2024).

What was measured:
J774.A1 macrophages = test: Flow cytometric quantification of clofazimine uptake and biotransformation to liquid crystals; format: cell-based, murine
[1] = Geometric particle size distribution by HELOS laser diffraction with RODOS dispersion; format: physicochemical; conditions: averaged n = 3
[2] = tested on: Mycobacterium leprae, Mycobacterium avium complex (MAC), and M. tuberculosis; conditions: against mycobacterium such as M. leprae; cited from earlier work
[3] = Sabnis et al., 2015; cited from earlier work

SMILES | cell proliferation/viability compared to control (J774.A1 cells) | cells fluorescent at 660 nm emission (biotransformation to liquid crystals) (J774.A1 macrophages; J774.A1, 24 hours exposure) [%] | cells containing drug, fluorescence at 610 nm emission (crystalline clofazimine) (J774.A1 macrophages; J774.A1, 24 hours exposure, 10,000 cells) [%] | Span [1] | X10 ([1]; first column) [μm] | X10 ([1]; second column) [μm] | X10 ([1]; third column) [μm] | minimum inhibitory concentration (MIC) [2] [µg/mL] | clofazimine solution in methanol that can be formed [3] [%]
CC(C)/N=c1\cc2n(-c3ccc(Cl)cc3)c3ccccc3nc-2cc1Nc1ccc(Cl)cc1 [solubilized clofazimine] | significant decrease | 0.21 | 2.48 | – | – | – | – | – | –
CC(C)N=c1cc2n(-c3ccc(Cl)cc3)c3ccccc3nc-2cc1Nc1ccc(Cl)cc1 [clofazimine, N,5-bis(4-chlorophenyl)-3-(1-methylethylimino)-5H-phenazin-2-amine] | – | – | – | 2.62 | 1.55 | 7.90 | 21.96 | 0.125 to 2 | 0.1
